The values that follow come from patent US8663646B2, “P53 peptide vaccine” (priority 2007, dated 2014).

Experiment [1] concerns the target T1, 20S immuno-proteasomes from mouse B-cell line (RMA) (Mus musculus, UniProt O35955+P28063+P28076).
T1 construct: 20S immuno-proteasomes were purified from a mouse B-cell line (RMA); endogenous in cells; host or cells: RMA cells; 20S proteasome purified from them
The experiment is described as follows: In vitro proteasome mediated digestion of 30-mers, mass spectrometry, immunoproteasome RMA. The settings on record: 30 residue long precursor peptides. It counts as biochemical. How it is done:
(§1) In the context of the invention, “being inefficiently processed by a proteasome” preferably means that within the first hour of digestion by a proteasome less than 1% of total digested peptide is found. The processing by a proteasome is preferably assessed by incubating a purified proteasome, more preferably a human proteasome with a peptide comprising the potential CTL epitope (30 amino acid length approximately) in a proteasome digestion buffer during at least one hour at 37° C. The reaction is subsequently stopped by adding trifluoroacetic acid. Analysis of the digested peptides is performed with electrospray ionization mass spectrometry (see example 1). Even more preferably, the human proteasome is an immunoproteasome from B-LCL JY cells (Kessler J H et al. 2001).
(§2) 20S immuno-proteasomes were purified from a mouse B-cell line (RMA) and a human B-LCL cell line (JY) and 20S household proteasomes were purified from human tumor cell line (HeLa) as described (Kessler J H et al 2001). To assess kinetics, digestions were performed with different incubation periods as indicated. Briefly, peptides containing the (potential) CTL epitopes (30 mers, 20 μg) were incubated with 1 μg of purified proteasome at 37° C. for 1 h, 4 h and 24 h in 300 μl proteasome digestion buffer, trifluoroacetic acid (30 μl) was added to stop the digestion and samples were stored at −20° C. before mass spectrometric analysis. Electrospray ionization mass spectrometry was performed on a hybrid quadrupole time-of-flight mass spectromter, a Q-TOF (Micromass), equipped with an on-line nanoelectrospray interface with an approximate flow rate of […] as described (Kessler J H et al 2001). The peaks in the mass spectrum were searched in the digested precursor peptide using the Biolynx/proteins software (Micromass) supplied with the mass spectrometer. The intensity of the peaks in the mass spectra was used to establish the relative amounts of peptides generated after proteasome digestion. The relative amounts of the peptides are given as a percentage of the total amount of peptide digested by the proteasome at the indicated incubation time. Major cleavage sites are defined as more than >1% of total digested peptide within the first hour.

Experiment [2] has as its target T2, 20S immuno-proteasomes from human B-LCL cell line (JY) (Homo sapiens, UniProt P28062+P28065+P40306).
T2 construct: purified from a mouse B-cell line (RMA) and a human B-LCL cell line (JY); endogenous in cells; host or cells: B-LCL JY cells; 20S proteasome purified from them
The experiment is described as follows: In vitro proteasome mediated digestion of 30-mers, mass spectrometry, immunoproteasome JY. It counts as biochemical. The settings on record: 30 residue long precursor peptides. How it is done: as §1, §2

The target of experiment [3] is T3, 20S household proteasomes from human tumor cell line (HeLa) (Homo sapiens, UniProt P28072+P28074+Q99436).
T3 construct: 20S household proteasomes were purified from human tumor cell line (HeLa); endogenous in cells; host or cells: HeLa cells; 20S proteasome purified from them
Nature of the experiment: In vitro proteasome mediated digestion of 30-mers, mass spectrometry, household proteasome HeLa. It counts as biochemical. The conditions noted are these: 30 residue long precursor peptides. How it is done:
as §1, §2

The target in experiment [4] is T4, HLA-A*0301 (Homo sapiens, UniProt P04439).
T4 construct: B-cell lines used are: CAA (A*0101), EKR (A*0301), BVR (A*1101), VIJF (A*2401); endogenous in cells; host or cells: B-cell line EKR
The experiment is described as follows: Competition based cellular binding assay, HLA-A*0301 (B-cell line EKR). The conditions noted are these: for Peptide Binding Affinity / IC50: HLA-A*0301, IC50 category; for HLA binding Affinity (Table 5): HLA type A3; for IC50: read-out: Peptide Binding Affinity.

In experiment [5] the target is T4, HLA-A*0301. Nature of the experiment: Stability of peptide-HLA complex, binding at 4° C. and 20° C., HLA-A*0301. The conditions noted are these: for Peptide Binding Stability: HLA-A*0301, IC50 at 20° C. vs 4° C.; for HLA binding Stability (Table 5): HLA type A3. How it is done:
(§3) Stability of other peptide-HLA complexes was preferably determined as follows. […] Peptides of >50% of the initial complexes was lost within 2 hours were considered unstable. […] The rest was designated as unstable peptide binding.
(§4) Peptides 8-11 residues in length were selected based on typical anchor residues for HLA-A*0101, A*0301, A*1101 and HLA-A*2401 (Rammensee H G et al). The capacity of peptides to bind was tested in a competition based cellular binding assay as previously described (van der Burg S H et al 1995). FL-labeled reference peptides were synthesized as Cys-derivative (van der Burg S H et al 1995). Fluorescence labeled reference peptides used were: YLEPAC(FL)AK (SEQ ID NO: 87) (HLA-A*0101) and KVFPC(FL)ALINK (SEQ ID NO: 88) (HLA-A*1101) (Sette A et al), KVFPC(FL)ALINK (SEQ ID NO: 89) (HLAA*0301) (van der Burg S H et al 1995) and RYLKC(FL)QQLL (SEQ ID NO: 90) (A*2401) (Dai L C et al). B-cell lines used are: CAA (A*0101), EKR (A*0301), BVR (A*1101), VIJF (A*2401). The relative binding capacity of the peptides is expressed as the peptide concentration to inhibit 50% (1050) of the binding of the reference peptide. […] Peptide stabilization for HLA-A*0201 was performed as previously described (van der Burg S H et al, 1996). Peptides of >50% of the initial complexes was lost within 2 hours were considered unstable. Stability of other peptide-HLA complexes was determined as follows. Peptide binding was performed at 4° C. and 20° C. and 1050 were determined. […] The rest was designated as unstable peptide binding.

For experiment [6], the target named is T5, HLA-A*1101 (Homo sapiens, UniProt P04439, A114D/D185E/E176A/F33Y/L180Q/S129P/T187R).
T5 construct: B-cell lines used are: CAA (A*0101), EKR (A*0301), BVR (A*1101), VIJF (A*2401); endogenous in cells; host or cells: B-cell line BVR
The experiment is described as follows: Competition based cellular binding assay, HLA-A*1101 (B-cell line BVR).

The target of experiment [7] is T5, HLA-A*1101. The experiment is described as follows: Stability of peptide-HLA complex, binding at 4° C. and 20° C., HLA-A*1101. The conditions noted are these: for Peptide Binding Stability: HLA-A*1101, IC50 at 20° C. vs 4° C. How it is done:
as §3, §4

Where no end group is shown, it is not given here.

As for `CC(C)C[C@H](NC(=O)[C@@H](NC(=O)[C@H](CC(N)=O)NC(=O)[C@H](CC(N)=O)NC(=O)[C@H](CCC(=O)O)NC(=O)[C@@H]1CCCN1C(=O)[C@H](CC(C)C)NC(=O)[C@H](CC(C)C)NC(=O)[C@@H](N)CCCCN)C(C)C)C(=O)O` [p53 24-32], in experiment [1], the “Proteasomal Cleavage of C-terminus, IP (RMA)” value was “+ (Major cleavage sites are defined as more than >1% of total digested peptide within the first hour)”. The “Proteasomal Cleavage of C-terminus, IP (JY)” value in experiment [2] is reported as “+ (Major cleavage sites are defined as more than >1% of total digested peptide within the first hour)”. The “Proteasomal Cleavage of C-terminus, HH (HeLa)” value in experiment [3] was “+ (Major cleavage sites are defined as more than >1% of total digested peptide within the first hour)”.
As for `CSCC[C@H](NC(=O)[C@H](CCCCN)NC(=O)[C@H](CC(N)=O)NC(=O)[C@H](CC(C)C)NC(=O)[C@H](C)N)C(=O)N[C@@H](Cc1ccccc1)C(=O)N[C@@H](CS)C(=O)N[C@@H](CCC(N)=O)C(=O)N[C@@H](CC(C)C)C(=O)N[C@@H](C)C(=O)N[C@@H](CCCCN)C(=O)O` [p53 129-139], the “Peptide Binding Affinity” value at HLA-A*0301 [4] is given as “high”. Besides, the “Peptide Binding Stability” value at HLA-A*0301 [5] is “+ (Stable peptides displayed IC50 at 20 °C that deviated <2 times of the IC50 at 4° C.)”. For the same molecule, the “Proteasomal Cleavage of C-terminus, IP (RMA)” value in experiment [1] is on record as “+ (Major cleavage sites are defined as more than >1% of total digested peptide within the first hour)”. For the same molecule, the “Proteasomal Cleavage of C-terminus, IP (JY)” value in experiment [2] is “+ (Major cleavage sites are defined as more than >1% of total digested peptide within the first hour)”. For the same molecule, in experiment [3], the “Proteasomal Cleavage of C-terminus, HH (HeLa)” value is listed as “+ (Major cleavage sites are defined as more than >1% of total digested peptide within the first hour)”.
As to `CSCC[C@H](NC(=O)[C@@H](N)CCCCN)C(=O)N[C@@H](Cc1ccccc1)C(=O)N[C@@H](CS)C(=O)N[C@@H](CCC(N)=O)C(=O)N[C@@H](CC(C)C)C(=O)N[C@@H](C)C(=O)N[C@@H](CCCCN)C(=O)O` [p53 132-139], the “Peptide Binding Affinity” value at HLA-A*0301 [4] is on record as “high”; at HLA-A*1101 [6] (HLA-A*1101, IC50 category) it was “high”. Also, the “Peptide Binding Stability” value on HLA-A*0301 [5] and on HLA-A*1101 [7] was “+ (Stable peptides displayed IC50 at 20 °C that deviated <2 times of the IC50 at 4° C.)” each time. For the same molecule, the “Proteasomal Cleavage of C-terminus, IP (RMA)” value in experiment [1] is on record as “+ (Major cleavage sites are defined as more than >1% of total digested peptide within the first hour)”. The “Proteasomal Cleavage of C-terminus, IP (JY)” value in experiment [2] is on record as “+ (Major cleavage sites are defined as more than >1% of total digested peptide within the first hour)”. Moreover, the “Proteasomal Cleavage of C-terminus, HH (HeLa)” value in experiment [3] is listed as “+ (Major cleavage sites are defined as more than >1% of total digested peptide within the first hour)”.
For the molecule `CC[C@H](C)[C@H](NC(=O)[C@@H](NC(=O)[C@@H](NC(=O)[C@H](CS)NC(=O)[C@H](CC(=O)O)NC(=O)[C@H](CO)NC(=O)CN)[C@@H](C)O)[C@@H](C)O)C(=O)N[C@@H](Cc1c[nH]cn1)C(=O)N[C@@H](Cc1ccc(O)cc1)C(=O)O` [p53 226-234], the “Proteasomal Cleavage of C-terminus, IP (RMA)” value in experiment [1] is reported as “+ (Major cleavage sites are defined as more than >1% of total digested peptide within the first hour)”. Also, in experiment [3], the “Proteasomal Cleavage of C-terminus, HH (HeLa)” value is given as “+ (Major cleavage sites are defined as more than >1% of total digested peptide within the first hour)”.
In the case of GFLHSGTAK [p53 112-120], the “HLA binding Affinity (Table 5)” value on HLA-A*0301 [4] and at HLA-A*1101 [6] (HLA type A11) was “int” in each case. Besides, the IC50 was 5 to 15 µM at HLA-A*0301 [4] and 5 to 15 µM on HLA-A*1101 [6] (HLA-A*1101, IC50 category, read-out: Peptide Binding Affinity). Also, the “HLA binding Stability (Table 5)” value on HLA-A*0301 [5] and at HLA-A*1101 [7] (HLA type A11) was “− (The rest was designated as unstable peptide binding.)” throughout. The “Peptide Binding Stability” value at HLA-A*0301 [5] and at HLA-A*1101 [7] was “− (The rest was designated as unstable peptide binding.)” throughout. Besides, in experiment [1], the “Proteasomal Cleavage of C-terminus, IP (RMA)” value is recorded as “+ (Major cleavage sites are defined as more than >1% of total digested peptide within the first hour)”. In addition, the “Proteasomal Cleavage of C-terminus, IP (JY)” value in experiment [2] was “+ (Major cleavage sites are defined as more than >1% of total digested peptide within the first hour)”.
As to KGQSTSRHK [p53 373-381], on HLA-A*0301 [4], the “HLA binding Affinity (Table 5)” value is “int” and the IC50 is 5 to 15 µM. At HLA-A*0301 [5], the “HLA binding Stability (Table 5)” value is recorded as “− (The rest was designated as unstable peptide binding.)” and the “Peptide Binding Stability” value was “+/− (Peptides that displayed IC50 at 20 °C of more than twice the IC50 at 4 °C but IC50 < 15 μM were considered to bind with intermediate stability.)”. In experiment [1], the “Proteasomal Cleavage of C-terminus, IP (RMA)” value was “+ (Major cleavage sites are defined as more than >1% of total digested peptide within the first hour)”. The “Proteasomal Cleavage of C-terminus, IP (JY)” value in experiment [2] is on record as “+ (Major cleavage sites are defined as more than >1% of total digested peptide within the first hour)”. For the same molecule, the “Proteasomal Cleavage of C-terminus, HH (HeLa)” value in experiment [3] was “+ (Major cleavage sites are defined as more than >1% of total digested peptide within the first hour)”.
As to LGFLHSGTAK [p53 111-120], at HLA-A*0301 [4], the “HLA binding Affinity (Table 5)” value is “high” and the “Peptide Binding Affinity” value was “high”. Also, the “Peptide Binding Affinity” value at HLA-A*1101 [6] (HLA-A*1101, IC50 category) is recorded as “high”. Besides, on HLA-A*0301 [5], the “HLA binding Stability (Table 5)” value is “+/− (Peptides that displayed IC50 at 20 °C of more than twice the IC50 at 4 °C but IC50 < 15 μM were considered to bind with intermediate stability.)” and the “Peptide Binding Stability” value is “+/− (Peptides that displayed IC50 at 20 °C of more than twice the IC50 at 4 °C but IC50 < 15 μM were considered to bind with intermediate stability.)”. In addition, on HLA-A*1101 [7], the “Peptide Binding Stability” value is “+ (Stable peptides displayed IC50 at 20 °C that deviated <2 times of the IC50 at 4° C.)”. Moreover, in experiment [1], the “Proteasomal Cleavage of C-terminus, IP (RMA)” value is “+ (Major cleavage sites are defined as more than >1% of total digested peptide within the first hour)”. In addition, the “Proteasomal Cleavage of C-terminus, IP (JY)” value in experiment [2] was “+ (Major cleavage sites are defined as more than >1% of total digested peptide within the first hour)”.
